Measured values taken from paper PMC6934184, “Selective DNA-PKcs inhibition extends the therapeutic index of localized radiotherapy and chemotherapy” (The Journal of Clinical Investigation, 2019).

Biological target: T1, HIPK2 (Homo sapiens, UniProt Q9H2X6)
T1 construct: purchased Thermo Fisher Scientific (Life Technologies) SelectScreen
Assay: SelectScreen Z'LYTE
Assay type: biochemical
Procedure, shortened: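 Compound tested in SelectScreen activity assays, Z'LYTE for CSF1R, CDK1/cyclin B and MAP2K6 and Adapta for CAMK1. ATP for CAMK1 was listed as 10, and Km app was used for CSF1R. Results are expressed in percent.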

T1 sequence (Q9H2X6 whole entry): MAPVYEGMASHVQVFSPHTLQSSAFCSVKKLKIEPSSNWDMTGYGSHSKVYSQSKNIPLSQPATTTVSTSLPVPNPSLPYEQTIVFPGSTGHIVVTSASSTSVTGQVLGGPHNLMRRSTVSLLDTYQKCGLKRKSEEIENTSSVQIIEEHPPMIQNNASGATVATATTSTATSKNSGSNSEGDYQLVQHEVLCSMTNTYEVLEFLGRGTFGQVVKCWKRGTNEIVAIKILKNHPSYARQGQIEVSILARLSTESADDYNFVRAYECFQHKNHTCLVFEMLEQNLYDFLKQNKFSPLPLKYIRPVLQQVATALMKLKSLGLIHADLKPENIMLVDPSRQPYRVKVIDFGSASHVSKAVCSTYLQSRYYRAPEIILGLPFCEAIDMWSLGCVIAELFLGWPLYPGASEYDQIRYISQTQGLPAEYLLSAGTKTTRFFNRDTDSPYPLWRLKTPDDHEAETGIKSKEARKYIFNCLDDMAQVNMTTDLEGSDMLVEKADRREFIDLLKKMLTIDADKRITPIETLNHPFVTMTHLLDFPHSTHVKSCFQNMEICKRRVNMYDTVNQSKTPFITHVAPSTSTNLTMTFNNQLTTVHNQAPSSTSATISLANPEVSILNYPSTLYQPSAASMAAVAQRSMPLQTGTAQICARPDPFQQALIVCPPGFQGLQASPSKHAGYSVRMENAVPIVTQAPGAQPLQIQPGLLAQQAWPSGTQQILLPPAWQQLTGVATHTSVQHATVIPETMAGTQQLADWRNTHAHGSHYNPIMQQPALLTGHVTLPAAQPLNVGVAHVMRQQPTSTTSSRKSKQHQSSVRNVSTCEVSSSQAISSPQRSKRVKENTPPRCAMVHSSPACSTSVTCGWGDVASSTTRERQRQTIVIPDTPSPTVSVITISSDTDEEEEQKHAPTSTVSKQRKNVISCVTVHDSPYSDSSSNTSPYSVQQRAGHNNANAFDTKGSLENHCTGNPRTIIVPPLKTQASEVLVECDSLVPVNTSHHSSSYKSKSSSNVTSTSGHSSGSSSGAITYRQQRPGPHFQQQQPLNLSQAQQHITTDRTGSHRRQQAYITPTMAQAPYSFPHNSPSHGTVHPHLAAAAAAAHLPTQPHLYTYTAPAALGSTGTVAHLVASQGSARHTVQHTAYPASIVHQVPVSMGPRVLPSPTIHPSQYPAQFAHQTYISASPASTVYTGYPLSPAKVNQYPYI

Q: How did the inhibition at 1 µM turn out when `CN(C(=O)CN1CCOCC1)c1ccc2sc3c(-c4cccc5c(=O)cc(N6CC7CCC(C6)O7)oc45)cccc3c2c1` [NU5455] was run?
A: 7.8%
